Patent US20040137426A1, “Gp41 peptides and methods based thereon for inhibiting HIV fusion to target cells” (priority 2002, published 2004)
Converted amounts (≈) assume the structure as drawn.

Experiments:
HIV-1 pseudovirus = assay: Timing of peptide addition and inhibition of pseudovirus infection; type: cell-based
JRFL (R5) pseudovirus = assay: Viral entry, Env pseudovirus with luciferase readout: JRFL; type: cell-based, HIV-1; conditions: from IC50 data of table 3
Method: (§1) In preliminary experiments we tested the panel of peptides for inhibition of HIV-1 infectivity using a single CXCR4-using T cell line-adapted virus isolate: HIV-1IIIB. Serial dilutions of the peptides were added to the target cells immediately followed by virus. After 5-7 days culture, supernatant was tested for viral p24 activity using a sensitive p24 ELISA. […] These viruses carry a luciferase readout and are competent for a single cycle of replication only. We chose to test Env from […] viruses representing: X4 TCLA virus (HXB2); X4 primary isolate (WHO D clade); R5X4 dual tropic primary isolate (W61D) and R5 primary isolates (JRFL and Bal).

HIV-1 [1] = conditions: for activity compared with T20 and T1249: across clades, Figs 5 and 6; for IC50: read-out: IC50 in hPBMCs, independent assays in hPBMCs (N36E 6, W37Q 5)
Method: The peptides were evaluated against two HIV-1 stains IIIB and BR92/92/021. These two stains were selected in part based on their co-receptor utilization preferences; HIV-1 IIIB utilizes the CXCR4 co-receptor whereas HIV-1 BR92 utilizes CCR5. To test anti-HIV efficacy, fresh Human Peripheral Blood Mononuclear Cells (PBMCs) were obtained from single, normal hepatitis and HIV-1 negative donors. The cells were stimulated by a using CD3+method. Drug testing was performed in a 96 well format in triplicate. Each plate contained control wells (cells+virus), experimental wells (drug+cells+virus) and compound control wells (drug+cells, to monitor cytotoxicity). The read-out for viral infectivity after seven days of infection was based on reverse transcriptase activity of cell free supernatant samples. Drug toxicity was determined in the control well by a standard assay using the tetrazolium compound, which was converted in live cells into a colored formazan product that can readily be monitored on the microtiter plate.
PBMCs were stimulated via the CD3 antigen that is part of the T cell receptor. […] The T cell preparation contains about 50% CD4+cells that are susceptible to HIV-1 infection. Therefore no further separation between CD4+ and CD8+cells is necessary.
The data were obtained according to the following protocol:
Pre-incubate diluted peptides (0 to 50 ug/ml) with virus strain
Add 3 day anti-CD3 stimulated human peripheral blood mononuclear cells (50,000/well)
Incubate 37° C. for 6 days in IL-2 containing media
Test cell-free culture supernatants for reverse transcriptase (RT) activity at day 6
Test cells in cultures for toxicity using an MTS (CellTiter96 Reagent Promega) staining for cell viability
All assay results shown were done in triplicate

[2] = test system: W61D (R5X4 dual tropic primary isolate) pseudovirus; assay: Viral entry, Env pseudovirus with luciferase readout: W61D; type: cell-based, HIV-1; conditions: for N36E on CCR5+ indicator cells
Method: as §1

HIV-1 [3] = conditions: for activity compared with the new analogues of T-20, T-21 and DP219: qualitative comparison
Method: Peptides were tested in vitro for inhibition of early steps in cell-free HIV-1 infection and direct cell-to-cell spread of virus using T-cell line-adapted and primary isolates and recombinant HIV-1 viruses pseudotyped for env using CCR5, CXCR4 or both coreceptors.
Selected de novo designed peptides according to the invention (S291, N36E, W37Q and W371) and the new analogues of T20, T21 and DP219 were evaluated for inhibition of both cell-free HIV-1 infection and of direct cell-to-cell spread using a range of T-cell line-adapted and primary isolates and recombinant HIV-1 pseudotyped for env derived from patient isolates of different clades.

[4] = test system: HXB2 (X4 TCLA virus) pseudovirus; assay: Viral entry, Env pseudovirus with luciferase readout: HXB2; type: cell-based, HIV-1; conditions: from IC50 data of table 3
Method: as §1

HIV-1 IIIB = type: cell-based; conditions: lab-adapted HIV-1 IIIB
Method: Both involved the culture of the virus with the peptide or its scrambled form for 1 hr at 37° C., 5% CO2 and then subsequent addition of target cells for 7 days. Inhibition was assessed using an enzyme-linked immunosorbent assay (ELISA) of viral core protein p24 antigen.

[5] = test system: WHO isolate Clade D (X4) pseudovirus; assay: Viral entry, Env pseudovirus with luciferase readout: WHO isolate Clade D; type: cell-based, HIV-1; conditions: from IC50 data of table 3
Method: as §1

[6] = target: HIV-1 IIIB gp41 (HIV-1 IIIB); assay: cell-based or functional assay
[7] = test system: HL2/3 cells expressing HIV-1IIIB Env fusing with MAGI-CCR5 cells; type: cell-based; conditions: MAGI-CCR5 / HL2/3; read-out: IC50 cell fusion assay
Method: A second panel of anti-HIV-1 peptides according to the invention was evaluated for using the MAGI-CCR5 antiviral assay and a gene reporter cell fusion assay. MAGI-CCR5 is an HIV-1 indicator cell line derived from HeLa cells that express CD4 and the HIV-1 coreceptors CCR5 and CXCR4. These cells contain a gene reporter cassette of β-galactosidase that is expressed from an HIV-1 LTR. Expression of the reporter gene is dependent on the production of HIV-1 tat that occurs following HIV-1 entry. The read-out for viral infectivity after two days of incubation is measurement of β-galactosidase expression detectable by chemoluminescence. The assay structure in the 96 well format as that used in the PBMC assay. The cell fusion assay uses the same indicator cell line (MAGI-CCR5), which is incubated with a HeLa cell based cell line HL2/3 that expresses HIV-1IIIB Env on its surface and contains Tat and Rev expression cassettes. When HL2/3 cells fuse with the MAGI-CCR5 cells, HIV-1 Tat is delivered into the indicator cells leading to activation of the β-galactosidase gene which is under the control of the HIV-1 LTR. The enzyme activity is read out in a similar fashion by chemoluminescence using the same assay structure as mentioned above. This assay is uniquely sensitive to entry inhibitors. […]

## CC[C@H](C)[C@H](NC(=O)[C@H](CC(C)C)NC(=O)[C@H](CO)NC(=O)[C@H](Cc1ccc(O)cc1)NC(=O)[C@@H](NC(=O)[C@H](CC(C)C)NC(=O)[C@H](CO)NC(=O)[C@@H](NC(=O)[C@H](Cc1ccc(O)cc1)NC(=O)[C@H](CC(N)=O)NC(=O)[C@H](CC(=O)O)NC(=O)[C@@H](NC(=O)[C@H](CCC(=O)O)NC(=O)[C@H](CCCNC(=N)N)NC(=O)[C@H](CCC(=O)O)NC(=O)[C@H](Cc1c[nH]c2ccccc12)NC(=O)[C@H](CCC(=O)O)NC(=O)[C@H](CCSC)NC(=O)[C@H](Cc1c[nH]c2ccccc12)NC(=O)[C@@H](NC(=O)[C@H](CCSC)NC(=O)[C@H](CC(N)=O)NC(=O)[C@@H](N)CC(N)=O)[C@@H](C)O)[C@@H](C)CC)[C@@H](C)O)[C@@H](C)CC)C(=O)N[C@@H](CCC(=O)O)C(=O)N[C@@H](CCC(=O)O)C(=O)N[C@@H](CO)C(=O)N[C@@H](CCC(N)=O)C(=O)N[C@@H](CC(N)=O)C(=O)N[C@@H](CCC(N)=O)C(=O)N[C@@H](CCC(N)=O)C(=O)N[C@@H](CCC(=O)O)C(=O)N[C@@H](CCCCN)C(=O)N[C@@H](CC(N)=O)C(=O)N[C@@H](CCC(=O)O)C(=O)N[C@@H](CCC(N)=O)C(=O)N[C@@H](CCC(=O)O)C(=O)O [Peptide N36E]
HIV-1 pseudovirus; cells washed before virus
  inhibition, peptide preincubated with target cells then washed prior to addition of virus: no inhibitory effect
HIV-1 pseudovirus; peptide added 1 h after virus and cells
  inhibition, virus preincubated with cells for 1 h prior to addition of peptide: complete absence of inhibition
HIV-1 pseudovirus; simultaneous addition
  inhibitory effect, simultaneous mixing of virus, cells and peptide: most pronounced inhibitory effect
HIV-1 pseudovirus; virus washed before cells
  inhibition, virus preincubated with peptide 1 h at 37° C. then washed by ultrafiltration prior to addition to cells: weak but poorly reproducible inhibition
JRFL (R5) pseudovirus
  fold more active than Y36F, JRFL pseudovirus: 80 fold
HIV-1 [1]
  activity compared with T20 and T1249: compare well to both T20 and to T1249
  IC50: 2 ± 1 nM
[2]
  fold more active than Y36F, W61D pseudovirus: 18 fold
HIV-1 [3]
  fold more potent than analogues Y36F, K42K and E30E, frequently: 10 fold
  activity compared with the new analogues of T-20, T-21 and DP219: significantly greater potency
[4]
  fold more active than Y36F, HXB2 pseudovirus: 5 fold

## CC[C@H](C)[C@H](NC(=O)[C@H](CCC(=O)O)NC(=O)[C@H](CCCNC(=N)N)NC(=O)[C@H](CCC(=O)O)NC(=O)[C@H](Cc1c[nH]c2ccccc12)NC(=O)[C@H](CCC(=O)O)NC(=O)[C@H](CCSC)NC(=O)[C@H](Cc1c[nH]c2ccccc12)NC(=O)[C@@H](NC(=O)[C@H](CCSC)NC(=O)[C@H](CC(N)=O)NC(=O)[C@H](CC(N)=O)NC(=O)[C@@H](N)Cc1c[nH]c2ccccc12)[C@@H](C)O)C(=O)N[C@@H](CC(=O)O)C(=O)N[C@@H](CC(N)=O)C(=O)N[C@@H](Cc1ccc(O)cc1)C(=O)N[C@H](C(=O)N[C@@H](CO)C(=O)N[C@@H](CC(C)C)C(=O)O)[C@@H](C)O [Peptide W19L]
HIV-1 IIIB
  MIC HIV-1IIIB infectivity: 0.06 µg/mL (≈ 0.0238 µM)

## CC[C@H](C)[C@H](NC(=O)[C@H](CC(C)C)NC(=O)[C@H](CO)NC(=O)[C@H](Cc1ccc(O)cc1)NC(=O)[C@@H](NC(=O)[C@H](CC(C)C)NC(=O)[C@H](CO)NC(=O)[C@@H](NC(=O)[C@H](Cc1ccc(O)cc1)NC(=O)[C@H](CC(N)=O)NC(=O)[C@H](CC(=O)O)NC(=O)[C@@H](NC(=O)[C@H](CCC(=O)O)NC(=O)[C@H](CCCNC(=N)N)NC(=O)[C@H](CCC(=O)O)NC(=O)[C@H](Cc1c[nH]c2ccccc12)NC(=O)[C@H](CCC(=O)O)NC(=O)[C@H](CCSC)NC(=O)[C@H](Cc1c[nH]c2ccccc12)NC(=O)[C@@H](NC(=O)[C@H](CCSC)NC(=O)[C@H](CC(N)=O)NC(=O)[C@H](CC(N)=O)NC(=O)[C@H](Cc1c[nH]c2ccccc12)NC(=O)[C@@H](NC(=O)[C@H](CCC(N)=O)NC(=O)[C@H](CCC(=O)O)NC(=O)[C@H](CC(C)C)NC(=O)[C@H](CO)NC(=O)[C@H](CCCCN)NC(=O)[C@H](CC(N)=O)NC(=O)[C@H](CO)NC(=O)[C@@H](N)Cc1c[nH]c2ccccc12)[C@@H](C)CC)[C@@H](C)O)[C@@H](C)CC)[C@@H](C)O)[C@@H](C)CC)C(=O)N[C@@H](CCC(=O)O)C(=O)N[C@@H](CCC(=O)O)C(=O)N[C@@H](CO)C(=O)N[C@@H](CCC(N)=O)C(=O)O [Peptide W37Q]
JRFL (R5) pseudovirus
  fold more active than Y36F, JRFL pseudovirus: ~15 fold
[5]
  fold more active than Y36F, WHO D clade pseudovirus: approximately 22 fold
HIV-1 [1]
  activity compared with T20 and T1249: compare well to both T20 and to T1249
  IC50: 5 ± 2 nM
[2]
  fold more active than Y36F, W61D pseudovirus: ~20 fold
HIV-1 [3]
  fold more potent than analogues Y36F, K42K and E30E, frequently: 10 fold
  activity compared with the new analogues of T-20, T-21 and DP219: significantly greater potency

## CC[C@H](C)[C@H](NC(=O)[C@H](CC(C)C)NC(=O)[C@H](CO)NC(=O)[C@H](Cc1ccc(O)cc1)NC(=O)[C@@H](NC(=O)[C@H](CC(C)C)NC(=O)[C@H](CO)NC(=O)[C@@H](NC(=O)[C@H](Cc1ccc(O)cc1)NC(=O)[C@H](CC(N)=O)NC(=O)[C@H](CC(=O)O)NC(=O)[C@@H](NC(=O)[C@H](CCC(=O)O)NC(=O)[C@H](CCCNC(=N)N)NC(=O)[C@H](CCC(=O)O)NC(=O)[C@H](Cc1c[nH]c2ccccc12)NC(=O)[C@@H](N)CCC(=O)O)[C@@H](C)CC)[C@@H](C)O)[C@@H](C)CC)C(=O)N[C@@H](CCC(=O)O)C(=O)N[C@@H](CCC(=O)O)C(=O)N[C@@H](CO)C(=O)N[C@@H](CCC(N)=O)C(=O)N[C@@H](CC(N)=O)C(=O)N[C@@H](CCC(N)=O)C(=O)N[C@@H](CCC(N)=O)C(=O)N[C@@H](CCC(=O)O)C(=O)N[C@@H](CCCCN)C(=O)N[C@@H](CC(N)=O)C(=O)N[C@@H](CCC(=O)O)C(=O)N[C@@H](CCC(N)=O)C(=O)N[C@@H](CCC(=O)O)C(=O)O [Synthesised DP219, reference compound]
HIV-1 IIIB
  ID50% HIV-1IIIB infectivity: 6.00 µg/mL (≈ 1.6 µM)
  ID90 HIV-1IIIB infectivity: 12.5 µg/mL (≈ 3.34 µM)

## Recombinant DP178 (peptide)
[6]
  ID50%, HIV-1IIIB infectivity: 0.05 µg/mL
  ID90, HIV-1IIIB infectivity: 0.09 µg/mL
  MIC, HIV-1IIIB infectivity: 0.009 µg/mL

## T20 (peptide)
[6]
  IC50, cell fusion assay (MAGI-CCR5 cells with HL2/3 cells expressing HIV-1IIIB Env): 30 nM

## WNASWSNKSLEQIWNNMTWMEWEREIDNYTSLIYSLI [Peptide W37I]
HIV-1 [3]
  activity compared with the new analogues of T-20, T-21 and DP219: broadly similar levels of activity

## enfuvirtide
[7]
  IC50: ~30 nM
